Test results published in PubChem BioAssay (NCI).
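Each compound was tested at five concentrations against cells in 96-well plates for 48 hours. Definition used: TGI = concentration required for complete inhibition of growth.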

What was measured:
Assay in all cases: growth of human tumour cells (NCI), 48 h
DMS 273 small cell lung = system: DMS 273 small cell lung
EKVX NSCLC = system: EKVX NSCLC
SF-268 CNS = system: SF-268 CNS
HOP-62 NSCLC = system: HOP-62 NSCLC
HT29 colon = system: HT29 colon
RXF 393 renal = system: RXF 393 renal
UACC-62 melanoma = system: UACC-62 melanoma
786-0 renal = system: 786-0 renal
HCT-15 colon = system: HCT-15 colon
HOP-92 NSCLC = system: HOP-92 NSCLC
MALME-3M melanoma = system: MALME-3M melanoma
NCI-H226 lung = system: NCI-H226 lung
MOLT-4 leukemia = system: MOLT-4 leukemia
NCI-H460 lung = system: NCI-H460 lung
SNB-75 CNS = system: SNB-75 CNS
RPMI-8226 leukemia = system: RPMI-8226 leukemia
KM12 colon = system: KM12 colon
K-562 leukemia = system: K-562 leukemia
SR leukemia = system: SR leukemia
MDA-N = system: MDA-N

Structure (SMILES)	TGI (DMS 273 small cell lung) [µM]	TGI (EKVX NSCLC) [µM]	TGI (SF-268 CNS) [µM]	TGI (HOP-62 NSCLC) [µM]	TGI (HT29 colon) [µM]	TGI (RXF 393 renal) [µM]	TGI (UACC-62 melanoma) [µM]	TGI (786-0 renal) [µM]	TGI (HCT-15 colon) [µM]	TGI (HOP-92 NSCLC) [µM]	TGI (MALME-3M melanoma) [µM]	TGI (NCI-H226 lung) [µM]	TGI (MOLT-4 leukemia) [µM]	TGI (NCI-H460 lung) [µM]	TGI (SNB-75 CNS) [µM]	TGI (RPMI-8226 leukemia) [µM]	TGI (KM12 colon) [µM]	TGI (K-562 leukemia) [µM]	TGI (SR leukemia) [µM]	TGI (MDA-N) [µM]
CCCCCCC(C)OC(=O)/C=C(\CC(=O)OC(C)CCCCCC)C(=O)OC(C)CCCCCC (centres undefined)	> 100	> 100	> 100	> 100	> 100	> 100	> 100	> 100	> 100	> 100	> 100	> 100	> 100	> 100	> 100	> 100	–	–	–	–
COC(=O)c1cc(C(=CCC[C@H]2CC[C@@]3(C)C(CCC4C3CC[C@@]3(C)C4CC[C@@H]3C(C)CCCC(C)C)C2)c2cc(Cl)c(OC(=O)c3ccccc3)c(C(=O)OC)c2)cc(Cl)c1OC(=O)c1ccccc1 (some centres undefined)	–	> 10	> 10	> 10	> 10	> 10	> 10	> 10	> 10	> 10	> 10	> 10	> 10	> 10	> 10	> 10	> 10	> 10	> 10	> 10
NC(=O)CC(N=C1C(=O)OC(C(O)CO)C1=NC(CC(N)=O)C(=O)O)C(=O)O (centres undefined)	–	> 100	> 100	> 100	> 100	> 100	> 100	> 100	> 100	> 100	> 100	> 100	> 100	> 100	> 100	> 100	> 100	> 100	> 100	> 100
c1ccc(C(CCN2CC3CCC(CC3)C2)c2ccccc2)cc1	–	> 100	69.2	70.5	48.4	37.9	35.3	36.1	45.4	64.4	29.9	35.6	42.6	28.9	85.9	36.7	87.4	47.7	46.4	58.9
Cc1ccc(S(=O)(=O)N2CCNCCN(S(=O)(=O)c3ccc(C)cc3)CCN(S(=O)(=O)c3ccc(C)cc3)CC2)cc1	–	> 100	> 100	> 100	> 100	> 100	> 100	> 100	> 100	> 100	> 100	> 100	> 100	> 100	> 100	> 100	> 100	> 100	> 100	> 100
O=c1c2ccccc2[nH]c2cc(O)cc(O)c12	> 100	–	> 100	–	> 100	> 100	> 100	–	> 100	–	> 100	> 100	> 100	> 100	> 100	–	> 100	> 100	–	–
COC(=O)c1ccccc1C1CN=NC12Cc1cccc(C)c1C2=O (centres undefined)	–	> 100	> 100	> 100	> 100	> 100	> 100	> 100	> 100	> 100	> 100	> 100	> 100	> 100	> 100	> 100	> 100	> 100	> 100	> 100
COc1cc2c(cc1OC)-c1cc3cc(OC)c(OC)cc3c(=O)n1CC2	–	> 100	> 100	> 72.8	> 100	> 69.8	34.7	> 100	> 100	10.5	> 79.5	> 85.9	> 100	> 100	> 79.3	47.2	> 100	> 100	> 100	> 100
Cc1nnc(-n2c(O)cc(=O)n(-c3ccccc3)c2=S)nc1/C=C/c1ccc(N(C)C)cc1	–	> 100	> 53.8	> 100	> 100	> 58.5	> 46.8	> 59.4	13.5	> 71.9	8.38	> 100	> 100	> 54.8	21.1	> 100	21	49.9	> 100	> 100
COc1ccc2cc(C(=O)NCCCNC(=O)c3ccc4cc(OC)ccc4c3)ccc2c1	–	> 100	> 100	42.1	> 100	39.6	> 100	57.5	> 100	45.2	> 100	> 100	> 100	> 100	50.5	> 100	> 100	> 100	> 100	> 100
CCOC(=O)Cn1c(=O)c2cc(-c3ccccc3)cc3c(Cl)nc4c(OC)c(OC)cc1c4c32	–	> 59.2	29.2	> 100	48.1	30.7	30.4	> 100	32.2	54.6	22	> 100	14.2	39.1	49.6	46.8	> 92.8	> 55	> 100	43.2
N=c1c2c(=S)n(-c3ccccc3)c(=S)n(-c3ccccc3)c2nc(SCCN2CCOCC2)n1-c1ccccc1	–	9.58	4.41	4.96	4.03	3.55	3.29	3.14	4.09	4.12	3.49	15.5	3.75	5.96	4.54	3.97	6.09	4.18	2.79	4.99
